The values below come from article PMC11110795, “Design, synthesis and antimycobacterial activity of imidazo[1,5-a]quinolines and their zinc-complexes” (RSC Medicinal Chemistry, 2024).

The test system of assay [1] is Staphylococcus aureus ATCC33592. The experiment in a line: MIC, microtiter turbidity test. It counts as cell-based. The conditions noted are these: read-out: MIC Sa.
Assay [2] has as its system Septoria tritici MUCL45408. The experiment in a line: MIC, BacTiter-Glo ATP quantification. It counts as cell-based. The conditions noted are these: read-out: MIC Str.
The subject of assay [3] is Escherichia coli ATCC35218. The experiment in a line: MIC, microtiter turbidity test. It counts as cell-based.
For assay [4], the system named is Mycobacterium tuberculosis H37Ra. The experiment in a line: MIC, BacTiter-Glo ATP quantification, surrogate Mtb strain. The following applies: for MIC Mtb: Mycobacterium tuberculosis H37Ra, 7H9-palmitate, 7 days, BacTiter-Glo, n=3; for MIC: Mycobacterium tuberculosis, H37RA, 168 h, read-out: MIC Mtb, Mycobacterium tuberculosis H37Ra, 7H9-palmitate, 7 days, BacTiter-Glo, n=3. It counts as cell-based. The procedure: The antimicrobial effect of the 21 synthesized compounds was initially accessed against a panel of 4 microbial indicator strains (Escherichia coli ATCC35218, Staphylococcus aureus ATCC33592, Septoria tritici MUCL45408 and Mycobacterium tuberculosis H37Ra). Cytotoxicity was investigated using an epithelia cell line from human lung carcinoma (Calu-3).
The minimum inhibitory concentration (MIC) of the […] compounds 5a-i, 6a-b,7a, 8a and C1-8 was determined as previously described with only minor changes. 6,7 Briefly, the cell density of an overnight cultures of Escherichia coli ATCC35218 and Staphylococcus aureus […] was diluted to 5 × 10^5 cells/mL in cation adjusted Mueller Hinton II medium (Becton Dickinson, Sparks, NV, USA) and distributed into 96-well plates. Three 12-point dilution series of rifampicin, tetracycline and gentamicin ranging from 64 - 0.03 µg/mL (all Sigma Aldrich, St. Louis, MO, USA), respectively, were used as positive controls. All tested compounds were dissolved in dimethyl sulfoxide (DMSO, Carl Roth GmbH + Co., Karlsruhe, Germany) and tested in triplicate at the same concentrations as the positive controls.
Bacterial suspensions without test compound or positive control were used as negative controls.
Medium background was averaged from 5 replicates. Assay incubation was done at 37°C, 180rpm and 85% relative humidity. The turbidity of each well was measured with a microplate spectrophotometer at 600 nm (LUMIstar® Omega BMG Labtech, Ortenberg, Germany). Growth inhibition was calculated relative to the absorption of the controls.
For S. tritici MUCL45408, a previously prepared spore solution was used to adjust the assay inoculum to 1 × 10^5 spores/mL in potato dextrose medium (Sigma Aldrich). Septoria assay plates were incubated for 4 days at 25°C, 180 rpm and 85% rH. Tebuconazole (Cayman Chemical Company, Ann Arbor, MI, USA) and amphotericin B (Sigma Aldrich) were used as positive control. Cell viability was evaluated via ATP quantification (BacTiter-Glo™, Promega, Walldorf, Germany) according to the manufacturer’s […]
Mycobacterium tuberculosis ITM-M006710 H37Ra (ATCC 9431) was incubated for 14 days in Middlebrook 7H9 broth (from ThermoFisher Scientific, Walthman, MA, USA) supplemented with 5.6 µg/mL palmitic acid (Sigma Aldrich), 1 mg/mL casitone (ThermoFisher Scientific), 5mg/mL BSA, 4µg/mL catalase (Sigma Aldrich), and 0.2% glycerol at 37°C, 180 rpm and 85% rH. In a first step, the culture was diluted to McFarland standard of 1, before the final inoculum density of a 1 × 10^6 cells/mL was obtained by further dilution with freshly prepared medium. Individual 12-point dilution series of rifampicin, ampicillin and gentamicin (ranging from 64-0.03 µg/mL) were used as positive controls. The assay plates were incubated for 7 days under microaerophilic conditions at 37°C/5% CO2 (BD gaspak CO2 system) and read-out was done by ATP quantification (s. above).
The MIC was defined as the minimum concentration where at least 85% growth inhibition relative to the negative control was measured. Relative inhibition for the microtiter turbidity tests (MTT) were […]
rel. inh.% = 100 * [1- (AU sample - AU Low)/(AU High - AU Low)]
AU: absorption unit at 600nm; Low: medium blank; High: negative control of maximal growth.
Accordingly, the BacTiter-Glo™ (BTG) assays were calculated as rel. inh.% = 100 * [1- (LU sample - LU Low)/(LU High - LU Low)]
AU: luminescence unit; Low: medium blank; High: negative control of maximal growth.
For Mycobacterium tuberculosis ATCC 35801 a resazurin microtiter assay was carried out as previously described8 Briefly, assay plates were set up by transferring 10 µl of compounds form a 1:2-fold dilution series in distilled and sterile water to a 96-well plate. The final assay´s concentrations range from 0.39-100 µM and as positive and negative control 5 µM rifampicin and 0.5% DMSO were used. Subsequently a bacterial suspension with Mycobacterium tuberculosis with a final OD560 of 0.0003 was prepared in […]

Another assay has as its system various Mtb strains. Details: method as in PMID 27654337, PMID 29900893, PMID 36934122, PMID 32750539. The following applies: cited from earlier work.
The mark [5] stands for this setting: Staphylococcus aureus ATCC33592 (MRSA), MHII medium, turbidity at 600 nm, n=3.
Where [6] appears, read: Staphylococcus aureus, ATCC 33592 / MRSA.
Setting [7] is: Septoria tritici MUCL45408, PDB medium, 4 days, BacTiter-Glo, n=3.
The mark [8] stands for this setting: Zymoseptoria tritici, MUCL45408, 96 h.
Where [9] appears, read: Escherichia coli ATCC35218, MHII medium, turbidity at 600 nm, n=3, read-out: MIC Ec.
The mark [10] stands for this setting: Escherichia coli, ATCC35218, read-out: MIC Ec.
Where [11] appears, read: ATCC 33592 / MRSA, Staphylococcus aureus ATCC33592 (MRSA), MHII medium, turbidity at 600 nm, n=3.
The mark [12] stands for this setting: Zymoseptoria tritici, 96 h, Septoria tritici MUCL45408, PDB medium, 4 days, BacTiter-Glo, n=3.

In brackets after ≈: the same amount, converted by molar mass. Where two headings read alike, the source gives them in different places.

A word on the MIC: it is the lowest concentration found to suppress growth. For `c1ccc(-c2nc(-c3cccs3)c3ccc4ccccc4n23)cc1` [5a], the MIC in assay [1] (setting [5]), in assay [1] (setting [6]), in assay [2] (setting [7]), in assay [2] (setting [8]), in assay [3] (setting [9]) and in assay [3] (setting [10]) was greater than 196 µM throughout. Also, in assay [4], the MIC was greater than 196 µM. For the same compound, in assay [4], the “MIC Mtb” value is greater than 196 µM.

For the compound `c1ccc(-c2nc(-c3ccccc3)n3c2ccc2ccccc23)cc1` [5b], the MIC in assay [1] (setting [11]), in assay [1] (setting [5]), in assay [2] (setting [7]), in assay [2] (setting [12]), in assay [3] (setting [9]) and in assay [4] was greater than 200 µM in each case. Moreover, in assay [4], the “MIC Mtb” value is greater than 200 µM.

Regarding `c1ccc(-c2nc(-c3ccccn3)c3ccc4ccccc4n23)cc1` [5c], the MIC in assay [1] (setting [11]) is greater than 199 µM; in assay [1] (setting [5]) it was greater than 199 µM; in assay [2] (setting [7]) it was greater than 199 µM; in assay [2] (setting [12]), greater than 199 µM; in assay [3] (setting [9]), greater than 199 µM; in assay [4], 25 µM (≈ 8.03 µg/mL).

Turning to `c1ccc(-c2nc(-c3nccc4ccccc34)c3ccc4ccccc4n23)cc1` [5d], the MIC in assay [1] (setting [11]), in assay [1] (setting [5]), in assay [2] (setting [7]), in assay [2] (setting [12]) and in assay [3] (setting [9]) was greater than 172 µM each time.

On to `c1ccc(-c2nc(-c3ncccn3)c3ccc4ccccc4n23)cc1` [5e], for which the MIC in assay [1] (setting [11]) is greater than 148 µM; in assay [1] (setting [5]) it was greater than 148 µM; in assay [2] (setting [7]), greater than 148 µM; in assay [2] (setting [12]) it was greater than 148 µM; in assay [3] (setting [9]) it was greater than 148 µM; in assay [4], 1 µM (≈ 0.322 µg/mL).

On to `c1ccc(-c2ccc(-c3nc(-c4ccccc4)n4c3ccc3ccccc34)nc2)cc1` [5f], for which the MIC in assay [1] (setting [11]) was greater than 136 µM; in assay [1] (setting [5]), greater than 136 µM; in assay [2] (setting [7]) it was greater than 136 µM; in assay [2] (setting [12]), greater than 136 µM; in assay [3] (setting [9]) it was greater than 136 µM; in assay [4], 34 µM (≈ 13.5 µg/mL).

As to `CN(C)c1ccccc1-c1nc(-c2ccccc2)n2c1ccc1ccccc12` [5h], the MIC in assay [1] (setting [11]) is greater than 127 µM; in assay [1] (setting [5]), greater than 127 µM; in assay [2] (setting [7]) it was greater than 127 µM; in assay [2] (setting [12]), greater than 127 µM; in assay [3] (setting [9]), greater than 127 µM; in assay [4], 2 µM (≈ 0.727 µg/mL).

Consider `COc1ccccc1-c1nc(-c2ccccc2)n2c1ccc1ccccc12` [5i], for which the MIC is greater than 183 µM in assay [1] (setting [11]); greater than 183 µM in assay [1] (setting [5]); greater than 183 µM in assay [2] (setting [7]); greater than 183 µM in assay [2] (setting [12]); greater than 183 µM in assay [3] (setting [9]); 46 µM (≈ 16.1 µg/mL) in assay [4].

As for `c1ccc(-c2nc(-c3ccccn3)n3c2ccc2ccccc23)nc1` [6a], the MIC in assay [1] (setting [11]), in assay [1] (setting [5]), in assay [2] (setting [7]), in assay [2] (setting [12]) and in assay [3] (setting [9]) was greater than 198 µM each time.

Take `c1ccc(-c2nc(-c3ccccn3)n3c2ccc2ccccc23)cc1` [6b]: the MIC in assay [1] (setting [11]), in assay [1] (setting [5]), in assay [2] (setting [7]), in assay [2] (setting [12]) and in assay [3] (setting [9]) was greater than 199 µM throughout.

`c1ccc(-c2nc(-c3cccc4ccccc34)n3c2ccc2ccccc23)nc1` [7a]: the MIC in assay [1] (setting [11]), in assay [1] (setting [5]), in assay [2] (setting [7]), in assay [2] (setting [12]) and in assay [3] (setting [9]) was greater than 172 µM in each case.

Consider `c1ccc(N(c2ccccc2)c2nc(-c3ccccn3)c3ccc4ccccc4n23)cc1` [8a], for which the MIC in assay [1] (setting [5]), in assay [1] (setting [6]), in assay [2] (setting [7]), in assay [2] (setting [8]), in assay [3] (setting [9]) and in assay [3] (setting [10]) was greater than 155 µM each time. Further, in assay [4], the MIC is greater than 155 µM. Moreover, the “MIC Mtb” value in assay [4] is greater than 155 µM.

For the compound `C[C@@H]1[C@H](O)[C@@H](C)/C=C/C=C/C=C/C=C/C=C/C=C/C=C/[C@H](O[C@@H]2O[C@H](C)[C@@H](O)[C@H](N)[C@@H]2O)C[C@@H]2O[C@](O)(C[C@@H](O)C[C@@H](O)[C@H](O)CC[C@@H](O)C[C@@H](O)CC(=O)O[C@H]1C)C[C@H](O)[C@H]2C(=O)O` [AMB, amphotericin B, reference compound], the MIC in assay [2] (setting [12]) is 0.135 µM (≈ 0.125 µg/mL).

With `CC1(C)S[C@@H]2[C@H](NC(=O)[C@H](N)c3ccccc3)C(=O)N2[C@H]1C(=O)O` [AMP, ampicillin, reference compound], in assay [4], the MIC was 184 µM (≈ 64.3 µg/mL).

With `CC(=O)[O-].CC(=O)[O-].[Cu+2]` [Cu(OAc)2, reference compound], the “MIC Mtb” value in assay [4] turned out to be 43 µM.

With `[Cl][Fe]([Cl])[Cl]` [FeCl3, reference compound], the MIC in assay [1] (setting [5]) and in assay [3] (setting [9]) was greater than 394 µM each time. In addition, in assay [4], the “MIC Mtb” value was greater than 394 µM.

As to `CC(C)(C)C(O)(CCc1ccc(Cl)cc1)Cn1cncn1` (stereo not shown) [TEB, tebuconazole, reference compound], the MIC in assay [2] (setting [8]) was greater than 0.01 µM.

For `[Cl-].[Cl-].[Zn+2]` [ZnCl2, reference compound], the MIC in assay [1] (setting [5]) and in assay [3] (setting [9]) was greater than 470 µM in each case. Besides, the “MIC Mtb” value in assay [4] came out at 235 µM.

In the case of `NCC[C@H](O)C(=O)N[C@@H]1C[C@H](N)[C@@H](O[C@H]2O[C@H](CN)[C@@H](O)[C@H](O)[C@H]2O)[C@H](O)[C@H]1O[C@H]1O[C@H](CO)[C@@H](O)[C@H](N)[C@H]1O` [amikacin], the “MIC, literature reported values” in the assay on various Mtb strains was 0.4 to 1.7 µM.

On to `COc1nc2ccc(Br)cc2cc1[C@@H](c1ccccc1)[C@@](O)(CCN(C)C)c1cccc2ccccc12` [bendaquiline], for which the “MIC, literature reported values” in the assay on various Mtb strains was 0.03 to 1 µM.

For the compound `CC[C@@H](CO)NCCN[C@@H](CC)CO` [ethambutol], in the assay with various Mtb strains, the “MIC, literature reported values” is 0.3 to 3 µM.

For the compound `CNC(C)C1CCC(N)C(OC2C(N)CC(N)C(OC3OCC(C)(O)C(NC)C3O)C2O)O1` (stereo not shown) [gentamicin, reference compound], in assay [4], the MIC amounted to 4 µM (≈ 1.91 µg/mL).

As for `NNC(=O)c1ccncc1` [isoniazid], the “MIC, literature reported values” with various Mtb strains was 0.3 to 1.4 µM.

In the case of `CO[C@H]1/C=C/O[C@@]2(C)Oc3c(C)c(O)c4c(O)c(c(/C=N/N5CCN(C)CC5)c(O)c4c3C2=O)NC(=O)/C(C)=C\C=C\[C@H](C)[C@H](O)[C@@H](C)[C@@H](O)[C@@H](C)[C@H](OC(C)=O)[C@@H]1C` [rifampicin, reference compound], the figures for the MIC in assay [1] (setting [11]), in assay [3] (setting [9]) and in assay [4] were greater than 78 µM, 5 µM (≈ 4.11 µg/mL) and 0.07 µM (≈ 0.0576 µg/mL), respectively.
